Data from ChEMBL document CHEMBL1770052, “Pharmacophore elucidation for a new series of 2-aryl-pyrazolo-triazolo-pyrimidines as potent human A3 adenosine receptor antagonists” (Bioorg Med Chem Lett, 2011).

Molecular target: T1, Adenosine receptor A3 (Homo sapiens, UniProt P0DMS8)
T1 sequence (P0DMS8 whole entry): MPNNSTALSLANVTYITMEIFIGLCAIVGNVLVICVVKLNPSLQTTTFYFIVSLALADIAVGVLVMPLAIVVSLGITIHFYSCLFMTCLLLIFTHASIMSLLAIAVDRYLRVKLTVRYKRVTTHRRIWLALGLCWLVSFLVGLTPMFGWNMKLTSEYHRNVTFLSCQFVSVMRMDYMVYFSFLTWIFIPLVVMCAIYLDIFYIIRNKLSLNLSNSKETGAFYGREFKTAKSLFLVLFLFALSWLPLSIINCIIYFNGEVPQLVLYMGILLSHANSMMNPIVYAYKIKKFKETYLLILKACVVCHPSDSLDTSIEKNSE
Assay: Antagonist activity at human adenosine A3 receptor
Format: functional

Ki [nM] | Structure (SMILES)
8.48 | O=C(Cc1ccccc1)Nc1nc2nn(CCc3ccccc3)cc2c2nc(-c3ccc(Cl)cc3)nn12
0.01 | Cn1cc2c(nc(NC(=O)N[n+]3ccccc3)n3nc(-c4ccco4)nc23)n1
